Reference: patent US20260327211A1, “MODULATORS OF A POTASSIUM CHANNEL AND OF TRPV1 CHANNEL AND USES THEREOF” (Bsense Bio Therapeutics Ltd., priority 2023, published 2026)
Entries after “also recorded” stand apart in the source; their conditions may differ.

Legend:
rat DRGs = experiment: NGF-treated rat DRG neuropathic model, capsaicin-induced tetanic burst; type: cell-based; conditions: NGF 100 ng/ml pretreated
Procedure: DRGs treated with NGF show tetanic action potential burst in response to CAP application, mimicking neuropathic like response. See, Background Art FIG. 8A. NGF enhances TRPV1 function using Calcium-dependent fluorescence, F, relative to maximal fluorescence, Fmax, as a function of time from a single HEK293 cell stably transfected with TrkA and transiently transfected with hTRPV1. Pulses of capsaicin (100 nM, applied as shown at top) elicited submaximal increases in [Ca]i. Exposure to NGF (100 ng/mL, see top) enhanced the capsaicin induced calcium increase. Arrows show responses used for calculation of sensitization ratio.

hTRPV1 = target: T1, hTRPV1 (Homo sapiens, UniProt Q8NER1); experiment: hTRPV1 dual activity electrophysiology, CHO cells co-expressing hKv7.2/3 and hTRPV1; type: cell-based; conditions: 100 nM
T1 construct: CDS of NM_080704.4, inserted into the multiple cloning site of pcDNA3.1(+); host or cells: CHO/hKv7.2/3

MIA-OA rats = experiment: Monosodium iodoacetate-induced osteoarthritis (MIA-OA) pain model; type: in vivo, rat
Procedure: All animal experiments were carried out according to the Guide for the Care and Use of Laboratory Animals (2011 edition) and approved by the Israel National Institutional Animal Care and Use Committee (IACUC). Young adult male SD rats (Envigo RMS, Israel), were used for in vivo efficacy: Spared Nerve Injury (SNI), Distal Tibial Injury (DTI) and Post-operative Pain (POP), 200-220 grams, Chronic Post-Ischemia Pain (CPIP) 275-325 grams, Monosodium iodoacetate-induced osteoarthritis (MIA-OA) 180-220 grams; for in vivo safety: 200-250 grams at study initiation. […] The health status of the animals used in this study was examined upon their arrival. Only animals in good health were acclimatized to laboratory conditions and were used in the studies. All studies were performed following at least five days of animal acclimation. During acclimation and throughout the entire study duration, animals were housed within a limited-access rodent facility and kept in groups with a maximum of 2-3 rats per polypropylene cage. The cages were fitted with solid bottoms and filled with sterile wood shavings as bedding material. Animals were provided ad libitum with a commercial, sterile rodent diet and had free access to drinking water that was supplied to each cage via polyethylene bottles with stainless steel sipper tubes. A feed lot analysis of the diet batch used in the study was included in the archives with the study data. Water was monitored periodically. Plastic cylinders for playing and hiding and wooden balls or sticks were added to the cages for environmental enrichment.
Monosodium iodoacetate-induced osteoarthritis (MIA-OA): The animals were anaesthetized using an Isoflurane+O2 mixture. Then 50 μl of MIA at a concentration of 60 mg/mL was injected into the right knee joint using a 30 G needle. On study days 13 and 14 following MIA injection, the animals' dynamic weight bearing and response to von Frey filaments were measured.
Mechanical Allodynia (Von Frey): The rats were placed in an enclosure and positioned on a metal mesh surface but allowed to move freely. […]

adrenergic α2A = target: T2, adrenergic α2A (Homo sapiens, UniProt P08913); experiment: Functional selectivity panel, adrenergic α2A; type: biochemical
T2 construct: Eurofins DiscoverX, USA
Procedure: (§1) A broad panel of 78 recombinant targets was tested for pharmacologic activity in vitro through a variety of functional assays (Eurofins DiscoverX, USA), as part of the National Institute of Neurological Disorders and Stroke (NINDS) Preclinical Screening Platform for Pain (PSPP) program. The biological targets for the in vitro profiling have been selected based on avoiding opioid receptor stimulation and targets known to be associated with adverse events or targeted by drugs of abuse. […] For each test, a reference compound was evaluated at the target of interest as a positive control.

cannabinoid 1 receptor = target: T3, cannabinoid 1 receptor (Homo sapiens, UniProt P21554); experiment: Functional selectivity panel, cannabinoid 1 receptor; type: biochemical
T3 construct: Eurofins DiscoverX, USA
Procedure: as §1

In vitro micronucleus = type: cell-based; conditions: hamster, cho-k1 cells, read-out: Cytotoxicity (%) Absolute EC50
CHO-K1 cells = experiment: In vitro micronucleus; type: cell-based
NMDA = experiment: Functional selectivity panel, NMDA; type: biochemical; conditions: up to 10 micromolar
Procedure: as §1

GABAA = experiment: Functional selectivity panel, GABAA; type: biochemical; conditions: up to 10 micromolar
Procedure: as §1

Cav1.2 = Cav1.2 (Homo sapiens, UniProt Q13936); experiment: Functional screening panel, Cav1.2; type: biochemical; conditions: read-out: IC/EC50 Cav1.2
Procedure: as §1

T1 sequence (Q8NER1 whole entry): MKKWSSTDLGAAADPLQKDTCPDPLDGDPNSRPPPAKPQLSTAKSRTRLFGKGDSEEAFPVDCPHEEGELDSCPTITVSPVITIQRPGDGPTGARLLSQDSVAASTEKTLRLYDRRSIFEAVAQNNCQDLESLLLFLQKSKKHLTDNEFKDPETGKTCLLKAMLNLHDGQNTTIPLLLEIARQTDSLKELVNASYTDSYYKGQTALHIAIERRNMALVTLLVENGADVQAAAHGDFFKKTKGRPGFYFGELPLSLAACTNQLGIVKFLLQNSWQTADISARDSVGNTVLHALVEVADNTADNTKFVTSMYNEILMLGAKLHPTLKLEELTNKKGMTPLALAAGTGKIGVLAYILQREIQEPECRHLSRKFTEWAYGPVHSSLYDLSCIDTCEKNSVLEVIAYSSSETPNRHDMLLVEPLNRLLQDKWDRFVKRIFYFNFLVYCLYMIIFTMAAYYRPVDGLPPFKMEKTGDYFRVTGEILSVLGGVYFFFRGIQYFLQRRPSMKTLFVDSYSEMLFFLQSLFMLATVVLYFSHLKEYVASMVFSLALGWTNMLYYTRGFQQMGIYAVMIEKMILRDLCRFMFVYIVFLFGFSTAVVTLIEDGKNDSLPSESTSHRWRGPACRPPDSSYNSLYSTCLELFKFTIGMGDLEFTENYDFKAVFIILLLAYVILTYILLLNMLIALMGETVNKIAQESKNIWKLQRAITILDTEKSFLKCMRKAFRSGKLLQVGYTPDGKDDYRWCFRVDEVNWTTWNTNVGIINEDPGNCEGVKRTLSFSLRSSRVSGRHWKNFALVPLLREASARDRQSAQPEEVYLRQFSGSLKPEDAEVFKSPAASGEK
Cav1.2, sequence (Q13936 whole entry): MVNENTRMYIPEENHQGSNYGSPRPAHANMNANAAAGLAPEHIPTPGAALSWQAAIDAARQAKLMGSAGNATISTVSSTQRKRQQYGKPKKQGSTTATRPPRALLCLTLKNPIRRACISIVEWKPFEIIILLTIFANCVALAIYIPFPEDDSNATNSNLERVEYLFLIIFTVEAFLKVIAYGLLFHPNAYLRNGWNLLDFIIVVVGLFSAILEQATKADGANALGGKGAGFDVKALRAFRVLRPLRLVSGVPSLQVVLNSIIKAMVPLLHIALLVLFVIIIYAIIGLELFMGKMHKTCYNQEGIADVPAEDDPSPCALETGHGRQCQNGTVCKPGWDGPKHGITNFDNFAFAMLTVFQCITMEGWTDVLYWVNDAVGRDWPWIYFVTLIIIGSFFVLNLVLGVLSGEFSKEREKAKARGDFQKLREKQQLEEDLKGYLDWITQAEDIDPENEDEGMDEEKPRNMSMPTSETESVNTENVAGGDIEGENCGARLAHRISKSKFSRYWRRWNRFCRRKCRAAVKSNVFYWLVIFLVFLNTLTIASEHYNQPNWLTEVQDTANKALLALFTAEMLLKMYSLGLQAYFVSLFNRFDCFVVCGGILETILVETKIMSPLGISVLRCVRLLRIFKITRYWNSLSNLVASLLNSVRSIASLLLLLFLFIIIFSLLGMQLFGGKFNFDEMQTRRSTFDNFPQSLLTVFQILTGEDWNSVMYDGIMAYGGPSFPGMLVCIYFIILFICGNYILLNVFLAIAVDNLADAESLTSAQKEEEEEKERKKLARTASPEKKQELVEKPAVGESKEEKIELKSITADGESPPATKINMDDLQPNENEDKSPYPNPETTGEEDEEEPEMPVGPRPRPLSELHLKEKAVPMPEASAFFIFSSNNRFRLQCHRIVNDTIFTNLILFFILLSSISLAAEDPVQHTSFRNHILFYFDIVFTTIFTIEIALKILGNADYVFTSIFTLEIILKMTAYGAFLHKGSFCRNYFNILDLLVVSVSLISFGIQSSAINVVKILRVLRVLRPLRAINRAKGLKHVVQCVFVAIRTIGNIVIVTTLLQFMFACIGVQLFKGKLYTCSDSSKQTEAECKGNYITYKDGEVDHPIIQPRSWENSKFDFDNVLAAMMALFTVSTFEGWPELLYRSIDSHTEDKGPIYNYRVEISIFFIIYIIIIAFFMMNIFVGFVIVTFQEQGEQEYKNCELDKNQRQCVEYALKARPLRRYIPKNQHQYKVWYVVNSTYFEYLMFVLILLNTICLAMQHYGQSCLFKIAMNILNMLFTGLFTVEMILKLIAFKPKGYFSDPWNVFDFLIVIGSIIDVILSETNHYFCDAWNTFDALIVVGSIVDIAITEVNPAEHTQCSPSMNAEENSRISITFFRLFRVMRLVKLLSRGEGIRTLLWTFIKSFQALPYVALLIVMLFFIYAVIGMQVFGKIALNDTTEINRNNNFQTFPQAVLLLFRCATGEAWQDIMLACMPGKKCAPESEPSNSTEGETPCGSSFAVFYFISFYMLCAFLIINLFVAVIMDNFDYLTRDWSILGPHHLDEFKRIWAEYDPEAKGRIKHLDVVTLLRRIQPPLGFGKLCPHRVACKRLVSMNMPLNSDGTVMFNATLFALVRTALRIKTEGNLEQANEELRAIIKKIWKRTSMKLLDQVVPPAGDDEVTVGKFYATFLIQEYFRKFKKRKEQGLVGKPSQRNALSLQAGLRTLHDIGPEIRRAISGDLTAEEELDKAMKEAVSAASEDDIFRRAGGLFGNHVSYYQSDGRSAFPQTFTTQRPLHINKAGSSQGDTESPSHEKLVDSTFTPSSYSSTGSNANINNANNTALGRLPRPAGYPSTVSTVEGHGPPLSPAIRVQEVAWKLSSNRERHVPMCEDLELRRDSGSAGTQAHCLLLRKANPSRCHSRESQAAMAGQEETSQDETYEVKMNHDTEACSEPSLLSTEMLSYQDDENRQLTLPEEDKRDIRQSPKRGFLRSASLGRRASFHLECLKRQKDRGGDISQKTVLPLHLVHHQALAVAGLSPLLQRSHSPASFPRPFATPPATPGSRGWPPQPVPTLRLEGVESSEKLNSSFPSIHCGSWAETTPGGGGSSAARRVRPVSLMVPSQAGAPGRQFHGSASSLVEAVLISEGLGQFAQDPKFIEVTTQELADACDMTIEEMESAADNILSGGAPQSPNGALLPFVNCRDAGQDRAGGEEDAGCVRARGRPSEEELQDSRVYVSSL
Cav1.2, sequence (P54289 25-944 partner limits assumed): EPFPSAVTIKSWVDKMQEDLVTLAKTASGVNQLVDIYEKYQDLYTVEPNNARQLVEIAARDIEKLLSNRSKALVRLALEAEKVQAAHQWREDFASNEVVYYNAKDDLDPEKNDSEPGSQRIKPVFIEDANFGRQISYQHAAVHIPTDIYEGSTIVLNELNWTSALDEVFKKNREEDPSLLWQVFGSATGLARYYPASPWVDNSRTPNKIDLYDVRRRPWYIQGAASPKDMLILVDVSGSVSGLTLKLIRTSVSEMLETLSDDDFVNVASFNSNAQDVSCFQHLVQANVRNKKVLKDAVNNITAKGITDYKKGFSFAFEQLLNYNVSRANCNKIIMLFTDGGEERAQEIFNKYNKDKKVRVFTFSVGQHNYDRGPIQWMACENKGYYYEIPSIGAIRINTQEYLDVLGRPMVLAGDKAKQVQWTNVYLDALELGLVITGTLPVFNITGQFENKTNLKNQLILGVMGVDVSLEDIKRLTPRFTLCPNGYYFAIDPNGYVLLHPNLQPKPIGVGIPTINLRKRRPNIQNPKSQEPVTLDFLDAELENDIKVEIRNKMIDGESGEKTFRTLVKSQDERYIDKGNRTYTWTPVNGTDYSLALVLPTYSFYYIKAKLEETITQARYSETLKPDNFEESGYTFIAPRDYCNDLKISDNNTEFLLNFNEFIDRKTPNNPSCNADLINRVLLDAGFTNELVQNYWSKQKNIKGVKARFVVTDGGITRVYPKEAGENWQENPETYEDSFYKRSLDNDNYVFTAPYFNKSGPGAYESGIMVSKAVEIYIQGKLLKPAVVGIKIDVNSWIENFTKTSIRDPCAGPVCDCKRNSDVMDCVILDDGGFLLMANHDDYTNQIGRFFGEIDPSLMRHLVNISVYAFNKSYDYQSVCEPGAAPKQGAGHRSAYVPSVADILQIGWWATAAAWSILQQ
Cav1.2, sequence (P54289 945-1103 partner limits assumed): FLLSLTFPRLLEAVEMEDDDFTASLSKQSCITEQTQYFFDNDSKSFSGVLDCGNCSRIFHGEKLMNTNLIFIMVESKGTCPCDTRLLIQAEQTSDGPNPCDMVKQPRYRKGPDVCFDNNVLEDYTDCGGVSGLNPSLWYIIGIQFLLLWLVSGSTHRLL
T2 sequence (P08913 whole entry): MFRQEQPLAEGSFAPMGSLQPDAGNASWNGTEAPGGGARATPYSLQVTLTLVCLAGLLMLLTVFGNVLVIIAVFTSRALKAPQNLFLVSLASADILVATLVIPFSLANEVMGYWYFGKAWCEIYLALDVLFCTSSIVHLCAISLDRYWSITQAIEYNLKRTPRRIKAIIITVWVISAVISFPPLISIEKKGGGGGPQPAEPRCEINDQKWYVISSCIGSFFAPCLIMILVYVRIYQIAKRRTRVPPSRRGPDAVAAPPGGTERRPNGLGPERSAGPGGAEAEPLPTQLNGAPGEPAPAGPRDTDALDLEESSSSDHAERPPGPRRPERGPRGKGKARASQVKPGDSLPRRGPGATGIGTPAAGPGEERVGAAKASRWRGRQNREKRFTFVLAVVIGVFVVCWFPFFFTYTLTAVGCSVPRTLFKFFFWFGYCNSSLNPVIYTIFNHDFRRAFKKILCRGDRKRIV
T3 sequence (P21554 whole entry): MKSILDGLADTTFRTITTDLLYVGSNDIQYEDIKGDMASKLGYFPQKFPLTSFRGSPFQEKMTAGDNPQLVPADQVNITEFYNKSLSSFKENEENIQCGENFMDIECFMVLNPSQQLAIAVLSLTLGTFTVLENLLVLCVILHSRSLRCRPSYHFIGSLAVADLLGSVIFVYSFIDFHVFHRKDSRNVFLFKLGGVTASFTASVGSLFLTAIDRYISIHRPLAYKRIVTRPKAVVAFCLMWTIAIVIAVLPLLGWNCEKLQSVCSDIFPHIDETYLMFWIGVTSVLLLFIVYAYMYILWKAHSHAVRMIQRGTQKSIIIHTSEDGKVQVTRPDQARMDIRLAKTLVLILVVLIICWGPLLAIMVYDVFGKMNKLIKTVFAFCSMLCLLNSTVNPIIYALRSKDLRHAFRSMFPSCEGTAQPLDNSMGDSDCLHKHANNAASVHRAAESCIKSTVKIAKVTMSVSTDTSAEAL

Cc1cn(-c2ccc(F)c(CC(=O)NCC(C)(C)O)c2)c2c(Cl)cc(Cl)cc12 [Compound 421-6]
Effect on capsaicin induced tetanic action potential burst (rat DRGs): alleviates the capsaicin induced tetanic action potential burst at levels below EC50; also recorded: reversible inhibition

O=C(Cc1cc(-n2cc(Cl)c3cc(Cl)cc(Cl)c32)ccc1F)NCCO [Compound 627]
hTRPV1 inhibition without hKv7.2/3 activation (hTRPV1): lack of hTRPV1 inhibition-potency gain; also recorded: TRPV1 could not be inhibited even at 100 nM

O=C(Cc1cncc(-n2cc(Cl)c3cc(Cl)cc(Cl)c32)c1)N[C@@H]1COC[C@H]1O [Compound 661]
Reversal of PWT (MIA-OA rats; 100 mg/kg, 6 hour post-dose): 33%
IC50 (adrenergic α2A): 6 µM
IC50 (cannabinoid 1 receptor): 1.4 µM

O=C(Cc1nccc(-n2cc(Cl)c3cc(Cl)cc(Cl)c32)n1)NC1COCC1O (centres unmarked) [Compound 760]
Pain relief in osteoarthritic pain model (MIA-OA rats; 3-30 mg/kg PO, vs naproxen 30 mg/kg PO): superior in both effect and duration to high dose of naproxen
minimal effective dose (MIA-OA rats; Rattus norvegicus, po, read-out: Effective dose, osteoarthritic pain): 3 to 30 mg/kg
CC50 at 3 h (In vitro micronucleus; Plate 2 without S9, 3 hours): > 200 µM
CC50 at 24 h (In vitro micronucleus; Plate 3 without S9, 24 hours): 81.2 µM
Micronucleus formation (CHO-K1 cells): lacks significant micronucleus formation
Micronucleus response Absolute MEC (CHO-K1 cells; Plate 1 with S9, 3 hours): >200 µM
CC50 (CHO-K1 cells; Plate 1 with S9, 3 hours, read-out: Cytotoxicity (%) Absolute EC50): > 200 µM
Micronucleus response Absolute MEC (CHO-K1 cells; Plate 2 without S9, 3 hours): >200 µM
Micronucleus response Absolute MEC (CHO-K1 cells; Plate 3 without S9, 24 hours): >200 µM
Effect on NMDA (NMDA): no effect
Effect on GABAA (GABAA): no effect
IC50 (Cav1.2): 2.99 µM
